Measured values as given in publication PMC7784547 (Bioorganic Chemistry, 2021).

What was measured:
[1] = system: A/Puerto Rico/8/34 (H1N1) with the NA-H274Y mutation; assay type: cell-based, influenza A virus; conditions: read-out: IC50 ± SD, 274
[2] = system: influenza A/PR/8/34 (H1N1) virus; assay type: cell-based

Molecule	IC50 [1] [nM]	IC50 after passage of ten generations [2] [µg/mL]
C=Cc1c(C)c2cc3nc(c4c5[nH]c(cc6nc(cc1[nH]2)C(C)=C6CC)c(C)c5C(=O)C4)[C@@H](CCC(=O)O)[C@@H]3C [PPa, pyropheophorbide a, reference compound]	1050 ± 990	–
protoporphyrin IX [PPIX]	1240 ± 530	2.18 ± 0.71
